Two compounds from US7811819B2, “Cryopreservation of primate embryonic stem cells” (The University of Washington, priority 2005, dated 2010) can be followed below.

In data set [1] the test system is H1 hESC. As to the kind of experiment: Toxicity of the DMSO cryoprotectant to hESC without freezing (Group 2 vs control Group 1). To be noted: DMSO 10% in freezing medium, straws held 20 minutes at room temperature, not frozen; Group 1 vs. 2; cells grown three days. The format is cell-based, human. As to the method: (§1) hESC culture. H1 hESC from passage 51 to 57 (WiCell, Madison, Wis., USA) were cultured in Knockout™ DMEM supplemented with GlutaMAX™ (2 mM), sodium pyruvate (1.0 mM), non-essential amino acids (0.1 mM), penicillin (50 u/ml), streptomycin (50 u/ml), Knockout™ serum replacer (15%) (all from Invitrogen, Carlsbad, Calif., USA) and β-mercaptoethanol (0.1 mM; Sigma, St. Louis, Mo., USA). hESC were grown on gelatinized tissue culture plates seeded with primary mouse embryonic fibroblasts that had been exposed to 3000 Rads γ-irradiation. To passage, cells were washed once with calcium and magnesium free phosphate buffered saline (PBS; Invitrogen, Carlsbad, Calif., USA) and then exposed to 1.2 u/ml dispase (Invitrogen, Carlsbad, Calif., USA) dissolved in PBS supplemented with 10% FBS until colonies began to lift from the plate. The cell layer was washed off the plate and mechanically dispersed using a plugged 9-inch Pasteur pipette or a 5 ml pipette. At this point, cells were divided into tubes for each group. The cells were then pelleted through centrifugation at 1200 rpm for 3 minutes, washed and pelleted again in culture medium (described above). […]
(§2) Calculation of Survival. Survival was calculated as combined colony number and colony size relative to Group 1, which was set at 100% survival. The horizontal diameters of 10 colonies were measured. […]

Data set [2] deals with H1 hESC. In words: Survival of hESC after slow, controlled-rate freezing and thaw (colony number and colony size relative to untreated control). The format is cell-based, human. To be noted: sucrose on thaw (cryoprotectant removal); concentration not given. As to the method: as §1, §2

For `C[S+](C)[O-]` [DMSO], the “toxicity to the hESC” value in the data set with H1 hESC [1] is reported as “does not appear toxic”. As to `OC[C@H]1O[C@@](CO)(O[C@H]2O[C@H](CO)[C@@H](O)[C@H](O)[C@H]2O)[C@@H](O)[C@@H]1O` [Sucrose], the “effect on survival following thaw” value with H1 hESC [2] was “harmful to survival”.
